The target of test [1] is T1, RlmR (TTC1712) (Thermus thermophilus, UniProt Q72GY4).
T1 construct: gene TT_C1712; full-length ORF (about 260 residues), N-terminal His-tag, pET28, codon-optimised gene, expressed in E. coli Rosetta; homodimer; HB8 orthologue TTHA0275 differs by three residues
T1 sequence (Q72GY4 1-260): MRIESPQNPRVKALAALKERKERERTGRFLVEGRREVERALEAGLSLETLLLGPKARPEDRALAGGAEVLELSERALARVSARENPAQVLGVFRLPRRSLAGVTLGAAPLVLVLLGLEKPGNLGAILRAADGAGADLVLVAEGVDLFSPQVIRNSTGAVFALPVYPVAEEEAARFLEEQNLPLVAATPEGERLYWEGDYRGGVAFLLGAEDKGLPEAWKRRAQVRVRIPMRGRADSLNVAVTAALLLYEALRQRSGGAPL
Put plainly: X-ray crystal structure, […] Å. Format: binding. The note with it: ternary complex with U2552 59-mer A-loop RNA; SAH in bent conformation; SAM site at the trefoil knot; pH 4.5.

For test [2], the target named is RlmR (TTC1712), 23S rRNA Um2552 SPOUT methyltransferase of Thermus thermophilus HB27 (Thermus thermophilus HB27). The experiment in a line: SEC; gel filtration chromatography of purified RlmR (Supplementary Fig. S4). In general terms: In gel filtration, larger molecules generally elute earlier.
The target is the same in test [3]. Put plainly: crystal structure; RlmR apoenzyme crystallised under oil at 20°C (100 mM Na citrate pH 4, 20% PEG6000, 1 M LiCl); asymmetric unit of two dimers; the same dimer holds the 59-mer RNA in the complexes with SAH or SAM.
The target in test [4] is T1, RlmR (TTC1712). The experiment in a line: X-ray crystal structure (co-crystal with RNA and SAM); also radiolabelled methyl transfer assay. Format: binding. The note with it: co-substrate U2552 59-mer RNA; SAM kept in the dimer site without RNA, turned over to SAH in the RNA-bound site; assay pH 8.0, 5 mM MgCl2, 50 °C, labelled compound.

`Nc1ncnc2c1ncn2[C@@H]1O[C@H](CSCC[C@H](N)C(=O)O)[C@@H](O)[C@H]1O` [SAH, S-adenosyl-homocysteine]: the “X-ray crystal structure, 1.9 Å” value on RlmR (TTC1712) [1] is “crystal structure of RlmR in complex with the 59-mer RNA and SAH to a resolution”.

Turning to “RlmR (TTC1712), 23S rRNA Um2552 SPOUT methyltransferase of Thermus thermophilus HB27 (enzyme)”, the stoichiometry N in test [2] and in test [3] was 2 throughout.

For `C[S+](CC[C@H](N)C(=O)O)C[C@H]1O[C@@H](n2cnc3c(N)ncnc32)[C@H](O)[C@@H]1O` (stereo partly shown) [SAM, S-adenosylmethionine], the “X-ray crystal structure (co-crystal with RNA and SAM); also radiolabelled methyl” value on RlmR (TTC1712) [4] is “in the other catalytic site of the dimer, not hosting the substrate, the co-substrate remains present as SAM”.

Values taken from publication PMC12123411, “Structural insight into the novel Thermus thermophilus SPOUT methyltransferase RlmR catalysing Um2552 formation in the 23S rRNA A-loop: a case of convergent evolution” (Nucleic Acids Research, 2025).
